Data reported in patent US9775844B2, “Heterocyclic compounds and uses thereof” (Infinity Pharmaceuticals, Inc., priority 2014, dated 2017).

What was measured:
PI3K α = PI3K α (Homo sapiens (Human), UniProt P42336); test: PI3-Kinase Promega ADP-Glo Max assay; format: biochemical
PI3K β = PI3K β (Homo sapiens (Human), UniProt P42338); test: PI3-Kinase Promega ADP-Glo Max assay; format: biochemical
PI3K δ = PI3K δ (Homo sapiens (Human), UniProt O00329); test: PI3-Kinase Promega ADP-Glo Max assay; format: biochemical
PI3K γ = PI3K γ (Homo sapiens (Human), UniProt P48736); test: PI3-Kinase Promega ADP-Glo Max assay; format: biochemical
Procedure: Promega ADP-Glo Max assay kit (Cat. No. V7002) was utilized to determine IC50 values for α, β, δ and γ isoforms of human Class I PI3 kinases (Millipore). […] Reactions were incubated at room temperature for 2 hours followed by addition of 25 uL of stop solution. After a 40-minute incubation at room temperature, 50 uL of Promega detection mix was added followed by incubation for 1 hour at room temperature. Plates were then read on Envision plate reader in lunimescence mode. Data was converted to % inhibition using the following equation below:
[formula] where S is the sample luminescence, Pos is a positive control without added PI3K, Neg is the negative control without added compound. Data was then plotted as % inhibition vs compound concentration.

PI3K-δ in RAJI cells = PI3K-δ in RAJI cells (Homo sapiens (Human), UniProt O00329); test: RAJI p110 δ assay (PI3K-δ selective cellular assay, phospho-AKT); format: cell-based; settings: phospho-AKT; read-out: RAJI p110 δ assay IC50
[1] = molecular target: PI3K-γ in RAW264.7 macrophages (Mus musculus (Mouse), UniProt Q9JHG7); test: Raw264.7 p110 γ assay (PI3K-γ selective cellular assay, C5a-stimulated phospho-AKT); format: cell-based; settings: for IC50: phospho-AKT, read-out: Raw264.7 p110 γ assay IC50
PI3K-γ in RAW264.7 macrophages, sequence (Q9JHG7 whole entry): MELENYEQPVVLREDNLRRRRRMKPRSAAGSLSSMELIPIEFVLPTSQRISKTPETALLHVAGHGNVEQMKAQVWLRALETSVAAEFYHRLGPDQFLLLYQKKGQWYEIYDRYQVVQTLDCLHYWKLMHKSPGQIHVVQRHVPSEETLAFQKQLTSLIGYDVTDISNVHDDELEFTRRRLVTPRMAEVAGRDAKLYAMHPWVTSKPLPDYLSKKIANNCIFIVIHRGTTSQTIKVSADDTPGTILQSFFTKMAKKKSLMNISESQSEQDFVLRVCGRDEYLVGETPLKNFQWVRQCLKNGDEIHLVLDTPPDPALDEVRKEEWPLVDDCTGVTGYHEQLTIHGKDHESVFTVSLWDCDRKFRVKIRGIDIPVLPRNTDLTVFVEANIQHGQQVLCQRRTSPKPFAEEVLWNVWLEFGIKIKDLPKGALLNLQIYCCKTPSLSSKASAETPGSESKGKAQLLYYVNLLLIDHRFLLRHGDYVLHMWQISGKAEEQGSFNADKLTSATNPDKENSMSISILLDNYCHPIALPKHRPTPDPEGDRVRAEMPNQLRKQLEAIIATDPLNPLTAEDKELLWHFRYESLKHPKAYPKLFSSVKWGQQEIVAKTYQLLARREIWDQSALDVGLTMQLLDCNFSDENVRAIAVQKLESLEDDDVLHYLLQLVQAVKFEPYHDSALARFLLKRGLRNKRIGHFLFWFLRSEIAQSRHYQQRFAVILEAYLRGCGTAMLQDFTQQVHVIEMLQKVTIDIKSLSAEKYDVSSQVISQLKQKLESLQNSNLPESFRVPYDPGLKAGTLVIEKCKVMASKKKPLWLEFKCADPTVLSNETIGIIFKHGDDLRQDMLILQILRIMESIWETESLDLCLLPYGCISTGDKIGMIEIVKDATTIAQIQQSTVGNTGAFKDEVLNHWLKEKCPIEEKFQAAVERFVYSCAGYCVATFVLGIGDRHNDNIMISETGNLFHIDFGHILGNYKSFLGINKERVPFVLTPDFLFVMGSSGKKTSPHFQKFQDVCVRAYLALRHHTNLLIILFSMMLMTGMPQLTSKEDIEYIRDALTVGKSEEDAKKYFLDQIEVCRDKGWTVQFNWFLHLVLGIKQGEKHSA
Source text: Briefly, serum-starved RAW264.7 cells are stimulated with a known GPCR agonist C5a. […] Cells can be treated with test compounds prior to, simultaneously with, or subsequent to the stimulation by C5a. RAW 264.7 cells respond to the complement component fragment C5a through activation of the C5a receptor, and the C5a receptor activates macrophages and induces cell migration.

PI3K δ, sequence (O00329 whole entry): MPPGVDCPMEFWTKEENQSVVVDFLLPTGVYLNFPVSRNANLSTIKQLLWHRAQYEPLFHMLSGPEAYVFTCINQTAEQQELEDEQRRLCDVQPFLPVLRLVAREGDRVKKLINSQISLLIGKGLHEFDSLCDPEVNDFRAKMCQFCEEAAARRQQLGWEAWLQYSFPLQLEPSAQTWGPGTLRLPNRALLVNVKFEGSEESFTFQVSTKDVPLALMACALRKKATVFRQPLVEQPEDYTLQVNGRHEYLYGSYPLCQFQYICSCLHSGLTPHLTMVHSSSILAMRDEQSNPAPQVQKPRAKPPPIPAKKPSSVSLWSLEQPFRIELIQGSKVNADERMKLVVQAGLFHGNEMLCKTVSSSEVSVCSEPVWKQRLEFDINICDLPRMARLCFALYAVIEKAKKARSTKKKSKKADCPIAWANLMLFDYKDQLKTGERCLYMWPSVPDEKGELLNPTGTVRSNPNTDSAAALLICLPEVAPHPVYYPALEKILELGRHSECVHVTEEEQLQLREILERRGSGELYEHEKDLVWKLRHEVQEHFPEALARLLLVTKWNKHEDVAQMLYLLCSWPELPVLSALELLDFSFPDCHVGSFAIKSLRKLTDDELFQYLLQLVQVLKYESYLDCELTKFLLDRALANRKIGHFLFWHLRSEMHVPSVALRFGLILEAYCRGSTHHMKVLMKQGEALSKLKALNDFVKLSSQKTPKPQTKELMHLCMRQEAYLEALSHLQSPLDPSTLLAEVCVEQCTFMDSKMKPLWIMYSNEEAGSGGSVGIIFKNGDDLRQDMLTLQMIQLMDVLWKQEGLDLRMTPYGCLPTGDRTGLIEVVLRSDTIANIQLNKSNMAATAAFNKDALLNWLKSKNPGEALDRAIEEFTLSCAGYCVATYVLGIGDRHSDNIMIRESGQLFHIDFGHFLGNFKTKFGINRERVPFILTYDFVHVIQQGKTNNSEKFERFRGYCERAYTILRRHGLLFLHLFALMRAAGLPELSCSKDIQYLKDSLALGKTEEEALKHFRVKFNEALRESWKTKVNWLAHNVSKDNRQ
PI3K δ, sequence (P27986 whole entry partner): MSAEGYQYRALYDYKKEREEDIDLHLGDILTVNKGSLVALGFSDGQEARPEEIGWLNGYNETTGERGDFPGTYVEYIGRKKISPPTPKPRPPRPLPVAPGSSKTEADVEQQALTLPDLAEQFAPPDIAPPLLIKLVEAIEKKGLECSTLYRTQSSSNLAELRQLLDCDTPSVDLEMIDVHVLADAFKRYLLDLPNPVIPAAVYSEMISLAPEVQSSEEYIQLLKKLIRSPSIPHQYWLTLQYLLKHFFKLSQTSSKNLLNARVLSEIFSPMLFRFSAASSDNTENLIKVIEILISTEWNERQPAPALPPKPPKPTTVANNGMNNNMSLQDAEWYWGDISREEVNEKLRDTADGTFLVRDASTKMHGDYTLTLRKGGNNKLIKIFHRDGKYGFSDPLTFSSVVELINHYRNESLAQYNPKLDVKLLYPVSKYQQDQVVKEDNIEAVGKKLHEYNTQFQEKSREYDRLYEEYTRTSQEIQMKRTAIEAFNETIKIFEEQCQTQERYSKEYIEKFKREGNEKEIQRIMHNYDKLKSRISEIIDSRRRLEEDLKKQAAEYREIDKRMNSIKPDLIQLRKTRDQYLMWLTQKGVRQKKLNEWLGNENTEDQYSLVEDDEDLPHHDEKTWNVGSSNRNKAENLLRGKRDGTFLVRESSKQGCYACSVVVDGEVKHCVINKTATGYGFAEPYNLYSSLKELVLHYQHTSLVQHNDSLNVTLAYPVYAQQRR
PI3K-δ in RAJI cells, sequence (O00329 whole entry): as the sequence (O00329 whole entry) above
PI3K-δ in RAJI cells, sequence (P27986 whole entry partner): as the sequence (P27986 whole entry partner) above
PI3K γ, sequence (P48736 whole entry): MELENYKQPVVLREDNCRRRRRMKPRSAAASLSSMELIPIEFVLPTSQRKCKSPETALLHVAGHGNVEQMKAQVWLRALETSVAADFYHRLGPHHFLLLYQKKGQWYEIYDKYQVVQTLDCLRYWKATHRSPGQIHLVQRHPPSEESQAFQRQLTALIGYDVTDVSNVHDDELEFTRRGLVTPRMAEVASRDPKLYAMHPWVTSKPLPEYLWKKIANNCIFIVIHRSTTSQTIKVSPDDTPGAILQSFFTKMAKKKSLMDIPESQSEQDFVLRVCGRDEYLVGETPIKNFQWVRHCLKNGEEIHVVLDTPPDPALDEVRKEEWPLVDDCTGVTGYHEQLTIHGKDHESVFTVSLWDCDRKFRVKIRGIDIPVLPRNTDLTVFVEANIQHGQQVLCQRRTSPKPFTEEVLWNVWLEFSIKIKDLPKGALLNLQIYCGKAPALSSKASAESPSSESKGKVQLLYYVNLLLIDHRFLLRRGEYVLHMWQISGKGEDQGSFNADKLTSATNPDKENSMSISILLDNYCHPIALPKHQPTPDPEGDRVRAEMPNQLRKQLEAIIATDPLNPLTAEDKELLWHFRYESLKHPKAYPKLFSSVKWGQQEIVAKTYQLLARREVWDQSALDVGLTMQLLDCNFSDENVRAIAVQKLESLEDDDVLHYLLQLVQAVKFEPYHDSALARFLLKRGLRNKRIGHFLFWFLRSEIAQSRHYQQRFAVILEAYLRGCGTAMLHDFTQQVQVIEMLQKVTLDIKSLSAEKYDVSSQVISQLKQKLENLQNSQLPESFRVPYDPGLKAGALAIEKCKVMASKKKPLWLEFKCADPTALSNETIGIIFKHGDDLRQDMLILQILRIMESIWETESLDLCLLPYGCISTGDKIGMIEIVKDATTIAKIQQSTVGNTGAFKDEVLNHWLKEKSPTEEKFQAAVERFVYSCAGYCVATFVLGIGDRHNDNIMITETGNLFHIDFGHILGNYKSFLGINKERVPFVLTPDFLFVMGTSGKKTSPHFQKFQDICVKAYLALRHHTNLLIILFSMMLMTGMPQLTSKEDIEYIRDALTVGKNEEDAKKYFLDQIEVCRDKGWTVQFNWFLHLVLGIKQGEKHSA

| SMILES | IC50 (PI3K α) | IC50 (PI3K β) | IC50 (PI3K δ) | IC50 (PI3K γ) | PI3K δ/PI3K γ IC50 (selectivity) (PI3K γ) | IC50 (PI3K-δ in RAJI cells) | RAJIδ/Raw264.7 γ IC50 (selectivity) [1] | IC50 [1] |
| --- | --- | --- | --- | --- | --- | --- | --- | --- |
| COc1ncc(C#Cc2cccc3cc([C@H](C)NC(=O)c4c(N)nn5cccnc45)n(-c4ccccc4)c(=O)c23)cn1 [Compound 18] | 5000 to 10000 nM | 5000 to 10000 nM | 5000 to 10000 nM | 100 to 500 nM | Y (Y = 50 to <850) | 100 to 500 nM | X (X = 10 to <50) | 1 to 50 nM |
| Cc1nn(C)cc1C#Cc1cccc2cc([C@H](C)NC(=O)c3c(N)nn4cccnc34)n(-c3ccccc3)c(=O)c12 [Compound 19] | 5000 to 10000 nM | 5000 to 10000 nM | 5000 to 10000 nM | 100 to 500 nM | Y (Y = 50 to <850) | 500 to 1000 nM | Y (Y = 50 to <850) | 1 to 50 nM |
| C[C@H](NC(=O)c1c(N)nn2cccnc12)c1cc2cccc(C#Cc3ccc(=O)n(C)c3)c2c(=O)n1-c1ccccc1 [Compound 20] | 5000 to 10000 nM | 5000 to 10000 nM | 1000 to 5000 nM | 1 to 100 nM | X (X = 10 to <50) | 100 to 500 nM | X (X = 10 to <50) | 1 to 50 nM |
| COC(C)C#Cc1cccc2cc([C@H](C)NC(=O)c3c(N)nn4cccnc34)n(-c3ccccc3)c(=O)c12 (some centres unmarked) [Compound 22] | 5000 to 10000 nM | 5000 to 10000 nM | 5000 to 10000 nM | 100 to 500 nM | X (X = 10 to <50) | 1000 to 10000 nM | X (X = 10 to <50) | 1 to 50 nM |
| C[C@H](NC(=O)c1c(N)nn2cccnc12)c1cc2cccc(C#Cc3cncn3C)c2c(=O)n1C1CC1 [Compound 23] | 1000 to 5000 nM | 1000 to 5000 nM | 5000 to 10000 nM | 1000 to 5000 nM | W (W = >1 to <10) | 100 to 500 nM | W (W = >1 to <10) | 1 to 50 nM |
| C[C@H](NC(=O)c1c(N)nn2cccnc12)c1cc2cccc(C#CC3CC3)c2c(=O)n1C1CC1 [Compound 24] | 1000 to 5000 nM | 1000 to 5000 nM | 1000 to 5000 nM | 1000 to 5000 nM | W (W = >1 to <10) | 100 to 500 nM | W (W = >1 to <10) | 1 to 50 nM |
| C[C@H](NC(=O)c1c(N)nn2cccnc12)c1cc2cccc(C#Cc3ccncc3)c2c(=O)n1-c1ccccc1 [Compound 26] | 5000 to 10000 nM | 5000 to 10000 nM | 5000 to 10000 nM | 100 to 500 nM | X (X = 10 to <50) | 100 to 500 nM | Y (Y = 50 to <850) | 1 to 50 nM |
| C[C@H](NC(=O)c1c(N)nn2cccnc12)c1cc2cccc(C#CC3CCOCC3)c2c(=O)n1-c1ccccc1 [Compound 27] | 5000 to 10000 nM | 5000 to 10000 nM | 5000 to 10000 nM | 100 to 500 nM | X (X = 10 to <50) | 1 to 100 nM | Y (Y = 50 to <850) | 1 to 50 nM |
| COc1cc(C#Cc2cccc3cc([C@H](C)NC(=O)c4c(N)nn5cccnc45)n(-c4ccccc4)c(=O)c23)ccn1 [Compound 28] | 5000 to 10000 nM | 5000 to 10000 nM | 5000 to 10000 nM | 1000 to 5000 nM | W (W = >1 to <10) | 100 to 500 nM | X (X = 10 to <50) | 1 to 50 nM |
| C[C@H](NC(=O)c1nccnc1N)c1cc2cccc(C#Cc3cnn(C)c3)c2c(=O)n1-c1ccccc1 [Compound 29] | 5000 to 10000 nM | 1000 to 5000 nM | 1000 to 5000 nM | 100 to 500 nM | X (X = 10 to <50) | 1 to 100 nM | W (W = >1 to <10) | 1 to 50 nM |
| C[C@H](NC(=O)c1c(N)nn2cccnc12)c1cc2cccc(C#Cc3ccn(C)n3)c2c(=O)n1-c1ccccc1 [Compound 30] | 5000 to 10000 nM | 5000 to 10000 nM | 5000 to 10000 nM | 100 to 500 nM | Y (Y = 50 to <850) | 100 to 500 nM | Y (Y = 50 to <850) | 1 to 50 nM |
| C[C@H](NC(=O)c1c(N)nn2cccnc12)c1cc2cccc(C#Cc3cc[nH]c(=O)c3)c2c(=O)n1-c1ccccc1 [Compound 31] | 5000 to 10000 nM | 5000 to 10000 nM | 5000 to 10000 nM | 100 to 500 nM | X (X = 10 to <50) | 100 to 500 nM | W (W = >1 to <10) | 50 to 100 nM |
| C[C@H](NC(=O)c1c(N)nn2cccnc12)c1cc2cccc(C#Cc3ccccn3)c2c(=O)n1-c1ccccc1 [Compound 32] | 5000 to 10000 nM | 5000 to 10000 nM | 5000 to 10000 nM | 100 to 500 nM | Y (Y = 50 to <850) | 500 to 1000 nM | Y (Y = 50 to <850) | 1 to 50 nM |
| CCOC(C#Cc1cccc2cc([C@H](C)NC(=O)c3c(N)nn4cccnc34)n(-c3ccccc3)c(=O)c12)OCC [Compound 34] | 5000 to 10000 nM | 5000 to 10000 nM | 5000 to 10000 nM | 500 to 1000 nM | X (X = 10 to <50) | 500 to 1000 nM | X (X = 10 to <50) | 50 to 100 nM |
| Cc1c(C#Cc2cccc3cc([C@H](C)NC(=O)c4c(N)nn5cccnc45)n(-c4ccccc4)c(=O)c23)cnn1C [Compound 35] | 5000 to 10000 nM | 5000 to 10000 nM | 5000 to 10000 nM | 100 to 500 nM | Y (Y = 50 to <850) | 500 to 1000 nM | Y (Y = 50 to <850) | 1 to 50 nM |
| C[C@H](NC(=O)c1c(N)nn2cccnc12)c1cc2cccc(C#CC=O)c2c(=O)n1-c1ccccc1 [Compound 36] | 1000 to 5000 nM | 1 to 500 nM | 1000 to 5000 nM | 1 to 100 nM | X (key: V = 0.1 to 1; W = >1 to <10; X = 10 to <50; Y = 50 to <850) | 100 to 500 nM | W (key: V = 0.1 to 1; W = >1 to <10; X = 10 to <50; Y = 50 to <850) | 100 to 10000 nM |
| Cc1nn(C)c(C)c1C#Cc1cccc2cc([C@H](C)NC(=O)c3c(N)nn4cccnc34)n(-c3ccccc3)c(=O)c12 [Compound 37] | 5000 to 10000 nM | 5000 to 10000 nM | 5000 to 10000 nM | 1000 to 5000 nM | W (W = >1 to <10) | 1000 to 10000 nM | Y (Y = 50 to <850) | 1 to 50 nM |
| Cc1ncc(C#Cc2cccc3cc([C@H](C)NC(=O)c4c(N)nn5cccnc45)n(-c4ccccc4)c(=O)c23)n1C [Compound 38] | 5000 to 10000 nM | 5000 to 10000 nM | 5000 to 10000 nM | 1 to 100 nM | Y (Y = 50 to <850) | 500 to 1000 nM | Y (Y = 50 to <850) | 1 to 50 nM |
| C[C@H](NC(=O)c1cnn2cccnc12)c1cc2cccc(C#Cc3cnn(C)c3)c2c(=O)n1-c1ccccc1 [Compound 39] | 5000 to 10000 nM | 5000 to 10000 nM | 5000 to 10000 nM | 100 to 500 nM | X (X = 10 to <50) | 1000 to 10000 nM | X (X = 10 to <50) | 50 to 100 nM |
